Test system: Bdnf, Arc, Egr-1, Egr-2, Egr-3 mRNA in mouse PFC, HIP, mPFC
Test: In vivo gene expression
Settings: PFC and HIP, 30 min after 10 mg/kg i.p.

In the case of CN(C)CCc1c[nH]c2ccccc12 [DMT, dimethyltryptamine], the “Expression of Egr-2 mRNA” value is reported as “significantly elevated expression”.

Reference: publication PMC12916285 (Molecular Psychiatry, 2025)
